# Measured values reported in PMC8765048 (JCI Insight, 2022).
# Like-named read-outs stand apart in the source and are kept apart here.
# Columns and labels:
# SARS-CoV-2 P.1 (Gamma) = assay: microbe, parasite or virus in culture; format: cell-based
# human cancer patients = settings: 40 human cancer patients, cited from earlier work
# [1] = test system: HEK293T (human embryonic kidney); assay: CellTox Green Cytotoxicity Assay; settings: ratio > 1 cytostatic, ≤ 1 cytotoxic
# Huh-7 cells = assay: Mitochondrial dye cell imaging (MTG, NAO); format: cell-based, human; settings: 100 nM for 5 d, MTG and NAO
# From the text: Other important measures of cell viability are mitochondrial integrity, function, cardiotoxicity, and genotoxicity, since other nucleoside analogs may vary in their effect on these endpoints ([29], [30]). Dyes commonly used to assess mitochondrial integrity are MitoTracker Green (MTG), a mitochondrial stain mostly localized to mitochondria based on hydrophobicity, and N-alkyl acridine orange (NAO), which binds to mitochondrial cardiolipin. Untreated Huh-7 cells and Huh-7 cells treated for 5 days with 100 nM sangivamycin were stained with MTG and NAO and imaged by fluorescence microscopy. […] To more quantitatively assess the impact of sangivamycin on mitochondrial integrity, we evaluated the effect of sangivamycin on mitochondrial metabolic function as well as cytoplasmic glycolytic function. The XF96e Seahorse instrument was used to quantify the oxygen consumption rate (OCR) over time in untreated control and sangivamycin-treated Huh-7 cells. […] Standard metabolic endpoints quantified with or without sangivamycin included sequential treatment and washout of cell cultures with oligomycin (ATP synthase inhibitor), carbonyl cyanide 4-(trifluoromethoxy)phenylhydrazone (FCCP; a proton gradient uncoupler), and antimycin A + rotenone (complex I and III blockers) (Supplemental Figure 7).
# Huh-7 cells were untreated or treated with 100 nM sangivamycin for 5 days. […]
# [2] = test system: Huh-7 (human hepatocarcinoma); assay: CellTox Green Cytotoxicity Assay; settings: ratio > 1 cytostatic, ≤ 1 cytotoxic
# [3] = test system: SARS-CoV-2 B.1.429 (Epsilon); assay: microbe, parasite or virus in culture; format: cell-based
# [4] = CellTiter-Glo cell viability assay, average of 8 cell types; format: cell-based; settings: human (7 cell types) and grivet (Vero E6), average ± SEM, n = 8 cell types
# multiple cell types = assay: as above; format: cell-based; settings: average ± SEM, n = 8 cell types
# grivets = settings: 10 days at 1.6 mg/kg/d and 28 days at 0.4 mg/kg/d; cited from earlier work
# [5] = test system: SARS-CoV-2 B.1.351 (Beta); assay: microbe, parasite or virus in culture; format: cell-based
# [6] = test system: SARS-CoV-2 B.1.351 (Beta); assay: microbe, parasite or virus in culture; format: cell-based; remark: listed apart in the source
# [7] = test system: SARS-CoV-2 B.1.429 (Epsilon); assay: microbe, parasite or virus in culture; format: cell-based; remark: listed apart in the source
# [8] = Turbidimetric aqueous solubility screening; format: physicochemical; settings: PBS, pH 7.4, PBS pH 7.4, 2 hours at 37°C, high test concentration 500 μM
# Procedure: Aqueous solubility of sangivamycin was measured using a high-throughput turbidimetric assay performed by Cyprotex. Initially, sangivamycin stock DMSO solution was diluted in DMSO to produce a range of concentrations. These dilutions were added to PBS at pH 7.4 (high test concentration 500 μM) and incubated for 2 hours at 37°C. At the end of the incubation period, the absorbance at 620 nm was measured for each concentration for 2 replicates to determine turbidity from precipitate formation.
# [9] = test system: SARS-CoV-2 B.1.1.7 (Alpha); assay: microbe, parasite or virus in culture; format: cell-based
# [10] = 24-hour plasma pharmacokinetics in CD-1 laboratory mice; format: in vivo, mouse; settings: for apparent volume of distribution / total clearance / area under the curve to the last time point / Cmax: CD-1 mice, i.p. 60 mg/kg; for area under the curve to the last time point: 24 h; for Cmax: mouse, plasma, ip
# Procedure: We next evaluated the 24-hour pharmacokinetics (PK) of sangivamycin in CD-1 laboratory mouse plasma. Sangivamycin’s plasma concentrations increased following i.p. injection of 60 mg/kg to a peak at 2 hours, then decreased over 6 or 8 hours, and remained virtually unchanged up to 24 hours after dosing. […] Graphing plasma concentration versus time produced an area under the curve to the last time point with values of 632 ± 66.6 h•ng/mL for males and 833 ± 53.9 h•ng/mL for females. […] Our data corroborate historical PK studies in mice with ^3H-labeled sangivamycin performed at the NCI in 1974 ([20]). In these studies, free nucleoside and mono-, di-, and triphosphate forms of sangivamycin were detected in blood, urine, and multiple tissues (e.g., heart, liver, brain, spleen, and kidneys) following i.p. injection of 8 mg/kg. The studies established that sangivamycin was phosphorylated after transportation into cells. In liver, heart, and brain, the predominant form of sangivamycin was sangivamycin 5′-monophosphate (SMP). […] Therefore, we determined the level of SMP in blood in our PK study using a published liquid chromatography–tandem mass spectrometry (LC-MS/MS) method with a lower limit of quantification of 1 ng/mL ([33]). Using this method, we detected SMP in the plasma of dosed mice but not control mice (Supplemental Figure 9B). The apparent levels of SMP increased in blood during the 24 hours of this study. There also was possible presence of a diphosphate metabolite of sangivamycin, but it was detected only in the plasma samples taken 24 hours after dosing.
# [11] = Severe acute respiratory syndrome coronavirus 2, Vero C1008, 24 h
# [12] = Severe acute respiratory syndrome coronavirus 2, Vero C1008, 48 h
# [13] = Severe acute respiratory syndrome coronavirus 2, Calu-3, 48 h
# [14] = Severe acute respiratory syndrome coronavirus 2, Vero C1008, 18 h
# [15] = Severe acute respiratory syndrome coronavirus 2, Calu-3, 24 h
smiles,measurement,setting,value
"NC(=O)c1cn([C@@H]2O[C@H](CO)[C@@H](O)[C@H]2O)c2ncnc(N)c12 [Sangivamycin, sangivamycin]","SI (selectivity index, CC50/IC50)","SARS-CoV-2 P.1 (Gamma); P.1 (Gamma), Vero E6 cells",>22.2
same,IC50,SARS-CoV-2 P.1 (Gamma); [11],27.1 nM
same,IC90,SARS-CoV-2 P.1 (Gamma); [11],245 nM
same,MTD,human cancer patients; 0.1–2.83 mg/kg total dose,not reached
same,tolerability,"human cancer patients; daily, thrice weekly, or weekly dosing, 0.1–2.83 mg/kg total dose",well tolerated
same,activity against the disease (cancer),human cancer patients,inactive
same,Ratio CellTox Green/CellTiter-Glo,[1],>5.65
same,Effect on mitochondrial integrity (imaging with mitochondrial dyes),Huh-7 cells,Negative
same,Effect on mitochondrial integrity (imaging with mitochondrial dyes),Huh-7 cells; listed as sangivamycin,did not significantly affect mitochondrial structural integrity
same,Ratio CellTox Green/CellTiter-Glo,[2],>10.3
same,CC50,in vitro,> 5 µM
same,"SI (selectivity index, CC50/IC50)","[3]; B.1.429 (Epsilon), Vero E6 cells",>8.2
same,IC50,[3]; [12],72.8 nM
same,IC90,[3]; [12],465 nM
same,CC50,[4],617 ± 181 nM
same,CC50,multiple cell types,607 ± 182 nM
same,tolerability,grivets,tolerated
same,"SI (selectivity index, CC50/IC50)","[5]; B.1.351 (Beta), Calu-3 cells",>10.1
same,IC50,[5]; [13],59.4 nM
same,IC90,[5]; [13],135 nM
same,"SI (selectivity index, CC50/IC50)","[6]; B.1.351 (Beta), Vero E6 cells",>10.5
same,IC50,[6]; [14],57.4 nM
same,IC90,[6]; [14],224 nM
same,"SI (selectivity index, CC50/IC50)","[7]; B.1.429 (Epsilon), Calu-3 cells",>8.4
same,IC50,[7]; [15],71.1 nM
same,IC90,[7]; [15],234 nM
same,solubility at 2 h,[8],≥ 500 µM
same,"SI (selectivity index, CC50/IC50)","[9]; B.1.1.7 (Alpha), Calu-3 cells",>10.1
same,IC50,[9]; [15],59.1 nM
same,IC90,[9]; [15],522 nM
same,apparent volume of distribution,[10]; females,"167,000 mL/kg"
same,total clearance,[10]; females,"68,500 mL/h/kg"
same,area under the curve to the last time point,[10]; females,833 ± 53.9 ng·h/mL
same,apparent volume of distribution,[10]; males,"369,000 mL/kg"
same,total clearance,[10]; males,"85,400 mL/h/kg"
same,area under the curve to the last time point,[10]; males,632 ± 66.6 ng·h/mL
same,Cmax,"[10]; female, females (285 ng/mL), read-out: Cmax, molar equivalent",922 nM
same,Cmax,"[10]; female, females, read-out: Cmax of the plasma",285 ± 35.9 ng/mL
same,Cmax,"[10]; male, males (97.3 ng/mL), read-out: Cmax, molar equivalent",314 nM
same,Cmax,"[10]; male, males, read-out: Cmax of the plasma",97.3 ± 31 ng/mL
same,Cmax relative to the average IC90 in the 3 cell lines tested,[10]; mouse plasma Cmax 314 nM and 922 nM,3- to 9 fold
